Measured values taken from patent US20100105724A1, “CRYSTALLINE AND AMORPHOUS FORMS OF PALONOSETRON HYDROCHLORIDE” (HELSINN HEALTHCARE SA, priority 2006, published 2010).
Blank lines part the entries; values can stand above or below the compound they belong to.

Columns and labels:
[1] = target: T1, 5-hydroxyltryptamine 3 receptor precursor (5-HT3 receptor) (Homo sapiens, UniProt P46098); details: in vitro, literature (Wong 1995; Eglen 1995); cited from earlier work
T1 sequence (P46098 24-478): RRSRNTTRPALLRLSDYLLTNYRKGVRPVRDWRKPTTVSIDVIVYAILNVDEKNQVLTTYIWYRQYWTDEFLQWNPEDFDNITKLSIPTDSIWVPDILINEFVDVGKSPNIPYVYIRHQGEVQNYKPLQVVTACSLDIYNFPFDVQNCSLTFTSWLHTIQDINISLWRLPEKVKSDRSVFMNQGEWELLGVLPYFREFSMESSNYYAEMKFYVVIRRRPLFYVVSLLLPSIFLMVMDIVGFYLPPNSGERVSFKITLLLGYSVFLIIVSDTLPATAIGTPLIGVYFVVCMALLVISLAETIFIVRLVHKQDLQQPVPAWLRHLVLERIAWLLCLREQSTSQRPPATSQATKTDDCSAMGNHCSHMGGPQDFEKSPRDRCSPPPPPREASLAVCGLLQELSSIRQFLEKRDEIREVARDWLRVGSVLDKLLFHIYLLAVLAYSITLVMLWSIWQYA

[2] = tested on: other receptors such as dopamine receptors; details: literature (Wong 1995; Eglen 1995); cited from earlier work
[3] = Hygroscopicity measurement (water absorption at constant relative humidity); type: physicochemical; details: for hygroscopicity: humidities up to 82% RH
Protocol: Hygroscopicity Measurement—Samples of 20-30 mg of the compound were weighed into small weighing bottles with ground glass tops. The bottles were dried in a 60° C. oven for 30 minutes. The samples were cooled in a dessicator containing anhydrous CaSO4 and then transferred to humidity chambers maintained at constant relative humidities with saturated salt solutions. The samples were weighed at different time intervals until equilibrium was reached. The percent moisture absorbed at a given time was calculated as follows: % Weight Change=((Wt−Wo)/Wo)×100 wherein W1=sample weight at given time after exposure to the indicated relative humidity, and Wo=initial sample weight.

[4] = Physical stability determination of polymorphs and amorphous phase; type: physicochemical
Protocol: Physical Stability Determination—The physical stability of the polymorphs was determined by wetting the powders with water, suspending in ethanol, ethyl acetate, and exposing them to 93% relative humidity (RH) and 26% RH. The DSC thermogram and the x-ray diffraction pattern were obtained after a few days to determine if phase changes had occurred. The physical stability of the amorphous phase was determined by equilibrating a sample at 40° C., 75% RH for two weeks.

SMILES: O=C1c2cccc3c2[C@H](CCC3)CN1[C@@H]1CN2CCC1CC2 (single isomer, unassigned) [Palonosetron]
affinity as an antagonist for the 5-HT3 receptor [1]: high affinity | affinity for other receptors such as dopamine receptors [2]: low affinity

SMILES: Cl.O=C1c2cccc3c2[C@H](CCC3)CN1[C@@H]1CN2CCC1CC2 [Form I]
Water absorbed ([3]; 50% relative humidity, 1 day): 0.02 weight % | Water absorbed ([3]; 50% relative humidity, 4 days): 0.14 weight % | Water absorbed ([3]; 50% relative humidity, 8 days): 0.05 weight % | Water absorbed ([3]; 75% relative humidity, 1 day): 0.15 weight % | Water absorbed ([3]; 75% relative humidity, 4 days): 0.22 weight % | Water absorbed ([3]; 75% relative humidity, 8 days): 0.22 weight % | Water absorbed ([3]; 82% relative humidity, 1 day): 0.14 weight % | Water absorbed ([3]; 82% relative humidity, 4 days): 0.25 weight % | Water absorbed ([3]; 82% relative humidity, 8 days): 0.54 weight % | moisture absorbed ([3]; 93% RH, after eight days): 26% | physical change on exposure to humidity ([3]; 93% RH, after eight days): turning into a paste | physical change on exposure to humidity ([3]; 93% RH, two weeks): liquefied | Water absorbed ([3]; 93% relative humidity, 1 day): 0.07 weight % | Water absorbed ([3]; 93% relative humidity, 4 days): 0.63 weight % | Water absorbed ([3]; 93% relative humidity, 8 days): 25.7 weight % | physical state of sample ([3]; 93% relative humidity, 8 days): Semi | Water absorbed (physical state printed) ([3]; 93% relative humidity, 15 days): Liquid | hygroscopicity [3]: not hygroscopic | Water absorbed ([3]; humidities up to 82%, after eight days): 0.5% | physical stability at high humidity ([4]; 93% relative humidity, two weeks, ambient temperature): deliquesced | physical stability as a suspension ([4]; suspension in ethanol): stable | physical stability as a suspension ([4]; suspension in ethyl acetate): stable | physical stability as a suspension ([4]; suspension in water): stable

SMILES: Cl.O=C1c2cccc3c2[C@H](CCC3)CN1[C@@H]1CN2CCC1CC2 [Form II]
phase change in suspension ([4]; suspended in ethanol for one week at ambient temperature (~25° C.)): converted to Form I

Second part, the compound after the results:

physical change on exposure to humidity ([3]; 93% RH, after eight days, hydrochloride): liquefies | hygroscopicity ([3]; hydrochloride): nonhygroscopic
SMILES: Cl.O=C1c2cccc3c2[C@H](CCC3)CN1[C@@H]1CN2CCC1CC2 [Palonosetron hydrochloride, (3aS)-2-[(S)-1-Azabicyclo [2.2.2]oct-3-yl]-2,3,3a,4,5,6-hexahydro-1-oxo-1Hbenz[de] isoquinoline hydrochloride]

physical stability at low humidity ([4]; 26% RH, two weeks): remained amorphous | phase change on equilibration ([4]; 40° C., 75% RH, two weeks): converted to Form I | solid form after deliquescence at ambient humidity ([4]; ambient humidity, subsequent to deliquescence): re-solidified as Form II | behaviour on exposure to ambient humidity ([4]; removed from the desiccator, ambient humidity): deliquesced immediately
SMILES: Cl.O=C1c2cccc3c2[C@H](CCC3)CN1[C@@H]1CN2CCC1CC2 [amorphous form]
